Source: patent US20060069132A1, “Azolecarboxamide herbicides” (priority 2004, published 2006)

Tests used:
rice [1] = test: Test B flooded paddy test; assay type: in vivo, Oryza sativa; settings: 1000 g ai/ha, visual rating, scale 0 to 100 (0 no effect, 100 complete control), 13 to 15 days
Procedure, shortened: (§1)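 Formulated test chemicals went onto postemergence plants measuring 2 to 18 cm, at one to four leaves. For the paddy assay, species had reached two leaves. Scoring took place 13–15 days later by eye, relative to untreated plants, using 0 for no effect up to 100 for full control.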

barnyardgrass [2] = test: Test C flooded paddy test; assay type: in vivo, Echinochloa crus-galli
Procedure, shortened: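 Weeds and wheat were sprayed after emergence, at a height of 2 to 18 cm (1–4 leaves), and paddy barnyardgrass was flooded and treated at two leaves. Assessment took place 12–14 days later in the greenhouse on a 0-to-100 visual control scale. A dash means no result was obtained.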

wheat = test: Test B postemergence herbicide test; assay type: in vivo, Triticum aestivum; set-up: key to Wheat plant response rating: 0 = no effect, 100 = complete control; settings: postemergence, 500 g ai/ha; visual rating, scale 0 (no effect) to 100 (complete control)
Procedure, shortened: (§2)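 After treating 2-leaf paddy plants or 2–18 cm postemergence plants (1 to 4 leaves) with formulated chemical, researchers kept them in a greenhouse for 13–15 days. Effects were judged visually versus controls: 0 indicates none, 100 total control.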

lambsquarters = test: Test B pre-/postemergence herbicide test; assay type: in vivo, Chenopodium album; settings: for Plant response rating, Lambsquarters: preemergence; for Lambsquarters plant response rating: postemergence, visual rating, scale 0 (no effect) to 100 (complete control)
Procedure, shortened: (§3)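 Plants compared with untreated controls 13–15 days post-treatment and given a visual 0–100 injury score. Applications: preemergence to seeds; postemergence at 1- to 4-leaf (2–18 cm); paddy species flooded, 2-leaf stage. Vehicle non-phytotoxic, surfactant included.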

Surinam grass = test: Test B pre-/postemergence herbicide test; assay type: in vivo, Urochloa decumbens; settings: for Plant response rating, Surinam Grass: preemergence; for Surinam Grass plant response rating: postemergence, visual rating, scale 0 (no effect) to 100 (complete control)
Procedure, shortened: as §3

giant foxtail = test: Test B pre-/postemergence herbicide test; assay type: in vivo, Setaria faberi; settings: for Plant response rating, Foxtail, Giant: preemergence; for Foxtail, Giant plant response rating: postemergence, visual rating, scale 0 (no effect) to 100 (complete control)
Procedure, shortened: as §3

rice [3] = test: Test C flooded paddy test; assay type: in vivo, Oryza sativa
Procedure, shortened: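 Injury scored visually against controls on a 0 (no effect) to 100 (complete control) scale, 12 to 14 days after treatment in greenhouse. Flooded paddy plants treated at 2-leaf stage; postemergence plants at 1- to 4-leaf stage, 2 to 18 cm tall.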

ducksalad [4] = test: Test C flooded paddy test; assay type: in vivo, Heteranthera limosa
corn = test: Test B pre-/postemergence herbicide test; assay type: in vivo, Zea mays; settings: for Plant response rating, Corn: preemergence; for Corn plant response rating: postemergence, visual rating, scale 0 (no effect) to 100 (complete control)
Procedure, shortened: as §3

ducksalad [5] = test: Test B flooded paddy test; assay type: in vivo, Heteranthera limosa; settings: 1000 g ai/ha, visual rating, scale 0 to 100 (0 no effect, 100 complete control), 13 to 15 days
Procedure, shortened: as §1

blackgrass = test: Test B postemergence herbicide test; assay type: in vivo, Alopecurus myosuroides; settings: postemergence, 500 g ai/ha; visual rating, scale 0 (no effect) to 100 (complete control)
Procedure, shortened: as §1

[6] = tested on: smallflower umbrella sedge; test: Test C flooded paddy test; assay type: in vivo, Cyperus difformis
pigweed = test: Test B pre-/postemergence herbicide test; assay type: in vivo, Amaranthus retroflexus; settings: for Plant response rating, Pigweed: preemergence; for Pigweed plant response rating: postemergence, visual rating, scale 0 (no effect) to 100 (complete control)
Procedure, shortened: as §3

velvetleaf = test: Test B pre-/postemergence herbicide test; assay type: in vivo, Abutilon theophrasti; settings: for Plant response rating, Velvetleaf: preemergence; for Velvetleaf plant response rating: postemergence, visual rating, scale 0 (no effect) to 100 (complete control)
Procedure, shortened: as §3

large crabgrass = test: Test B pre-/postemergence herbicide test; assay type: in vivo, Digitaria sanguinalis; settings: for Plant response rating, Crabgrass, Large: preemergence; for Crabgrass, Large plant response rating: postemergence, visual rating, scale 0 (no effect) to 100 (complete control)
Procedure, shortened: as §3

rice [7] = test: Test B pre-/postemergence herbicide test; assay type: in vivo, Oryza sativa; settings: 500 g ai/ha; visual rating 0-100, 0 no effect, 100 complete control; preemergence
Procedure, shortened: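 Greenhouse pot assay with simultaneous preemergence (treated seed) and postemergence (2–18 cm seedlings) applications of surfactant-containing, non-phytotoxic solvent formulations. Response scored visually 13–15 days later on a 0–100 scale, 100 meaning complete control.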

morningglory = test: Test B pre-/postemergence herbicide test; assay type: in vivo, Ipomoea coccinea; settings: for Plant response rating, Morningglory: preemergence; for Morningglory plant response rating: postemergence, visual rating, scale 0 (no effect) to 100 (complete control)
Procedure, shortened: as §3

wild oat = test: Test B postemergence herbicide test; assay type: in vivo, Avena fatua; settings: postemergence, visual rating, scale 0 (no effect) to 100 (complete control)
Procedure, shortened: as §2

barnyardgrass [8] = test: Test B pre-/postemergence herbicide test; assay type: in vivo, Echinochloa crus-galli; settings: for Plant response rating, Barnyardgrass: preemergence; for Barnyardgrass plant response rating: postemergence, visual rating, scale 0 (no effect) to 100 (complete control)
Procedure, shortened: as §3

cocklebur = test: Test B pre-/postemergence herbicide test; assay type: in vivo, Xanthium strumarium; settings: for Plant response rating, Cocklebur: preemergence; for Cocklebur plant response rating: postemergence, visual rating, scale 0 (no effect) to 100 (complete control)
Procedure, shortened: as §3

barnyardgrass [9] = test: Test B flooded paddy test; assay type: in vivo, Echinochloa crus-galli; settings: 1000 g ai/ha, visual rating, scale 0 to 100 (0 no effect, 100 complete control), 13 to 15 days
Procedure, shortened: as §1

[10] = tested on: small flower umbrella sedge; test: Test B flooded paddy test; assay type: in vivo, Cyperus difformis; settings: 1000 g ai/ha, visual rating, scale 0 to 100 (0 no effect, 100 complete control), 13 to 15 days
Procedure, shortened: as §1

[11] = 62 g ai/ha, scale 0 to 100 (0 no effect, 100 complete control)
[12] = 250 g ai/ha, scale of 0 to 100, 0 is no effect, 100 is complete control
[13] = 500 g ai/ha, visual rating after 12 to 14 days, scale 0 to 100 (0 no effect, 100 complete control)
[14] = 500 g ai/ha, visual rating 0-100, 0 no effect, 100 complete control
[15] = 125 g ai/ha, 0 to 100 scale, 0 is no effect, 100 is complete control
[16] = 125 g ai/ha, scale 0 to 100 (0 no effect, 100 complete control)

C#CCN(C)C(=O)c1ccnc(NC(=O)c2cc(C(C)(C)C)nn2CC)c1 [Compound 160]
75: Rice plant response rating (rice [3]; [12]) | Ducksalad plant response rating (ducksalad [4]; [11])
40: Pigweed plant response rating (pigweed; 125 g ai/ha) | Plant response rating, Cocklebur (cocklebur; [15])
80: Lambsquarters plant response rating (lambsquarters; 500 g ai/ha) | Sedge, Umbrella plant response rating [6, 12] | Pigweed plant response rating (pigweed; 500 g ai/ha) | Plant response rating, Velvetleaf (velvetleaf; [14]) | Plant response rating, Crabgrass, Large (large crabgrass; [14]) | Plant response rating, Rice (rice [7]) | Sedge, Umbrella plant response rating [10]
70: Barnyardgrass plant response rating (barnyardgrass [2]; [12]) | Lambsquarters plant response rating (lambsquarters; 125 g ai/ha) | Plant response rating, Surinam Grass (Surinam grass; [14]) | Plant response rating, Foxtail, Giant (giant foxtail; [14]) | Rice plant response rating (rice [3]; [16]) | Sedge, Umbrella plant response rating [6, 16] | Velvetleaf plant response rating (velvetleaf; 125 g ai/ha) | Velvetleaf plant response rating (velvetleaf; 500 g ai/ha) | Morningglory plant response rating (morningglory; 500 g ai/ha) | Plant response rating, Barnyardgrass (barnyardgrass [8]; [15]) | Plant response rating, Cocklebur (cocklebur; [14]) | Barnyardgrass plant response rating (barnyardgrass [9])
95: Plant response rating, Rice (rice [3]; [13])
10: Wheat plant response rating (wheat) | Surinam Grass plant response rating (Surinam grass; 125 g ai/ha) | Surinam Grass plant response rating (Surinam grass; 500 g ai/ha) | Plant response rating, Foxtail, Giant (giant foxtail; [15]) | Oat, Wild plant response rating (wild oat; 125 g ai/ha) | Barnyardgrass plant response rating (barnyardgrass [8]; 500 g ai/ha)
50: Blackgrass plant response rating (blackgrass) | Sedge, Umbrella plant response rating [6, 11]
85: Plant response rating, Barnyardgrass (barnyardgrass [2]; [13]) | Ducksalad plant response rating (ducksalad [4]; [16]) | Plant response rating, Sedge, Umbrella [6, 13]
30: Foxtail, Giant plant response rating (giant foxtail; 125 g ai/ha) | Foxtail, Giant plant response rating (giant foxtail; 500 g ai/ha) | Oat, Wild plant response rating (wild oat; 500 g ai/ha)
100: Plant response rating, Lambsquarters (lambsquarters; [14]) | Plant response rating, Lambsquarters (lambsquarters; [15]) | Plant response rating, Pigweed (pigweed; [14]) | Plant response rating, Pigweed (pigweed; [15]) | Plant response rating, Barnyardgrass (barnyardgrass [8]; [14])
60: Barnyardgrass plant response rating (barnyardgrass [2]; 125 g ai/ha, scale of 0 to 100, 0 is no effect, 100 is complete control) | Rice plant response rating (rice [3]; [11]) | Plant response rating, Velvetleaf (velvetleaf; [15])
0: Corn plant response rating (corn; 125 g ai/ha) | Corn plant response rating (corn; 500 g ai/ha) | Plant response rating, Corn (corn; [15]) | Crabgrass, Large plant response rating (large crabgrass; 125 g ai/ha) | Crabgrass, Large plant response rating (large crabgrass; 500 g ai/ha) | Morningglory plant response rating (morningglory; 125 g ai/ha) | Barnyardgrass plant response rating (barnyardgrass [8]; 125 g ai/ha)
90: Rice plant response rating (rice [1]) | Ducksalad plant response rating (ducksalad [4]; [12]) | Plant response rating, Ducksalad (ducksalad [4]; [13]) | Ducksalad plant response rating (ducksalad [5]) | Plant response rating, Morningglory (morningglory; [14]) | Cocklebur plant response rating (cocklebur; 500 g ai/ha)
20: Barnyardgrass plant response rating (barnyardgrass [2]; [11]) | Plant response rating, Surinam Grass (Surinam grass; [15]) | Plant response rating, Corn (corn; [14]) | Plant response rating, Crabgrass, Large (large crabgrass; [15]) | Plant response rating, Morningglory (morningglory; [15]) | Cocklebur plant response rating (cocklebur; 125 g ai/ha)
